Results: ChEMBL document CHEMBL1201862, “PubChem BioAssay data set” (2004)
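1) Cells in 96-well plates. 2) Compound, 48 h, 5 concentrations. 3) Linear interpolation between surrounding doses. 4) Unreached endpoint = highest concentration. GI50: concentration for 50% inhibition of growth.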 Activity calls are given as the source filed them. No stated cut-off is given here; in the data, active = GI50 up to about 1.1 µM and inactive = higher.

Key:
Assay in all cases: NCI anticancer screen, dose series, 48 h
786-0 = system: 786-0
A498 = system: A498
A549 = system: A549
ACHN = system: ACHN
BT-549 = system: BT-549
CAKI-1 = system: CAKI-1
CCRF-CEM = system: CCRF-CEM
COLO 205 = system: COLO 205
DU-145 = system: DU-145
EKVX = system: EKVX
HCC 2998 = system: HCC 2998
HCT-116 = system: HCT-116
HCT-15 = system: HCT-15
HL-60 = system: HL-60
HOP-62 = system: HOP-62
HOP-92 = system: HOP-92
HT-29 = system: HT-29
Hs-578T = system: Hs-578T
IGROV-1 = system: IGROV-1
K562 = system: K562
KM12 = system: KM12
LOX IMVI = system: LOX IMVI
M14 = system: M14
MCF7 = system: MCF7
MDA-MB-231 = system: MDA-MB-231
MDA-MB-435 = system: MDA-MB-435
MDA-N = system: MDA-N
MOLT-4 = system: MOLT-4
Malme-3M = system: Malme-3M
NCI-H226 = system: NCI-H226
NCI-H23 = system: NCI-H23
NCI-H460 = system: NCI-H460
NCI-H522 = system: NCI-H522
NCI/ADR-RES = system: NCI/ADR-RES
OVCAR-3 = system: OVCAR-3
OVCAR-4 = system: OVCAR-4
OVCAR-5 = system: OVCAR-5
OVCAR-8 = system: OVCAR-8
PC-3 = system: PC-3
RPMI-8226 = system: RPMI-8226
RXF 393 = system: RXF 393
SF-268 = system: SF-268
SF-295 = system: SF-295
SF-539 = system: SF-539
SK-MEL-28 = system: SK-MEL-28
SK-MEL-2 = system: SK-MEL-2
SK-MEL-5 = system: SK-MEL-5
SK-OV-3 = system: SK-OV-3
SN12C = system: SN12C
SNB-19 = system: SNB-19
SNB-75 = system: SNB-75
SW-620 = system: SW-620
T47D = system: T47D
TK-10 = system: TK-10
U-251 = system: U-251
UACC-257 = system: UACC-257
UACC-62 = system: UACC-62
UO-31 = system: UO-31

[N-]=[N+]=C(C(=O)OCC#CCOC(=O)C(=[N+]=[N-])S(=O)(=O)c1ccccc1)S(=O)(=O)c1ccccc1
GI50 (786-0): > 10 µM (inactive) | GI50 (A498): > 10 µM (inactive) | GI50 (A549): > 10 µM (inactive) | GI50 (ACHN): > 10 µM (inactive) | GI50 (BT-549): > 10 µM (inactive) | GI50 (CAKI-1): > 10 µM (inactive) | GI50 (CCRF-CEM): > 10 µM (inactive) | GI50 (COLO 205): > 10 µM (inactive) | GI50 (DU-145): > 10 µM (inactive) | GI50 (EKVX): > 10 µM (inactive) | GI50 (HCC 2998): > 10 µM (inactive) | GI50 (HCT-116): > 10 µM (inactive) | GI50 (HCT-15): > 10 µM | GI50 (HL-60): > 10 µM (inactive) | GI50 (HOP-62): > 10 µM (inactive) | GI50 (HOP-92): > 10 µM (inactive) | GI50 (HT-29): > 10 µM (inactive) | GI50 (Hs-578T): > 10 µM (inactive) | GI50 (IGROV-1): > 10 µM (inactive) | GI50 (K562): > 10 µM (inactive) | GI50 (KM12): > 10 µM (inactive) | GI50 (LOX IMVI): > 10 µM (inactive) | GI50 (M14): > 10 µM (inactive) | GI50 (MCF7): > 10 µM (inactive) | GI50 (MDA-MB-231): > 10 µM (inactive) | GI50 (MDA-MB-435): > 10 µM (inactive) | GI50 (MDA-N): > 10 µM (inactive) | GI50 (MOLT-4): > 10 µM (inactive) | GI50 (Malme-3M): > 10 µM (inactive) | GI50 (NCI-H226): > 10 µM (inactive) | GI50 (NCI-H23): > 10 µM (inactive) | GI50 (NCI-H460): > 10 µM (inactive) | GI50 (NCI-H522): > 10 µM (inactive) | GI50 (NCI/ADR-RES): > 10 µM (inactive) | GI50 (OVCAR-3): > 10 µM (inactive) | GI50 (OVCAR-4): > 10 µM (inactive) | GI50 (OVCAR-5): > 10 µM (inactive) | GI50 (OVCAR-8): > 10 µM (inactive) | GI50 (PC-3): > 10 µM (inactive) | GI50 (RPMI-8226): > 10 µM (inactive) | GI50 (RXF 393): > 10 µM (inactive) | GI50 (SF-268): > 10 µM (inactive) | GI50 (SF-295): > 10 µM (inactive) | GI50 (SF-539): > 10 µM (inactive) | GI50 (SK-MEL-28): > 10 µM (inactive) | GI50 (SK-MEL-2): > 10 µM (inactive) | GI50 (SK-MEL-5): > 10 µM (inactive) | GI50 (SK-OV-3): > 10 µM (inactive) | GI50 (SN12C): > 10 µM (inactive) | GI50 (SNB-19): > 10 µM (inactive) | GI50 (SNB-75): > 10 µM (inactive) | GI50 (SW-620): > 10 µM (inactive) | GI50 (T47D): > 10 µM (inactive) | GI50 (TK-10): > 10 µM (inactive) | GI50 (U-251): > 10 µM (inactive) | GI50 (UACC-257): > 10 µM (inactive) | GI50 (UACC-62): > 10 µM (inactive) | GI50 (UO-31): 0.2 µM (active)
